Values after ≈ are worked out from the molar mass of the structure shown.
Assays:
[1] = target: T1, DNA gyrase (Escherichia coli) (UniProt P0AES6+P0AES4); assay: In vitro antibacterial activity against gram-negative organism […] ATCC 13048; format: functional; conditions: Enterobacter aerogenes
[2] = target: T1, DNA gyrase (Escherichia coli); assay: In vitro antibacterial against gram-negative organism Escherichia coli JUHL; format: functional; conditions: Escherichia coli K-12
[3] = target: T1, DNA gyrase (Escherichia coli); assay: In vitro antibacterial activity against gram-negative organism Klebsiella pneumoniae ATCC 8045; format: functional
[4] = target: T1, DNA gyrase (Escherichia coli); assay: In vitro antibacterial activity against gram-negative organism Prov. stuartii CMX-640; format: functional; conditions: Providencia stuartii
[5] = In vitro antibacterial activity against gram-negative organism Pseudomonas aeruginosa 5007; format: functional; conditions: Pseudomonas aeruginosa; read-out: MIC
[6] = In vitro antibacterial activity against gram-negative organism Pseudomonas aeruginosa DPHD-2862; format: functional; conditions: Pseudomonas aeruginosa; read-out: MIC
[7] = target: T2, DNA gyrase (Staphylococcus aureus) (UniProt P0A0K8+P20831); assay: In vitro antibacterial activity against gram-positive organism Staphylococcus aureus 1775; format: functional
[8] = target: T2, DNA gyrase (Staphylococcus aureus); assay: In vitro antibacterial activity against gram-positive organism Staphylococcus aureus ATCC 6538p; format: functional
[9] = target: T2, DNA gyrase (Staphylococcus aureus); assay: In vitro antibacterial activity against gram-positive organism Staphylococcus aureus NCTC-10649M; format: functional
[10] = target: T1, DNA gyrase (Escherichia coli); assay: In vitro antibacterial activity against gram-positive organism Streptococcus bovis A-5169; format: functional; conditions: Streptococcus equinus
[11] = target: T2, DNA gyrase (Staphylococcus aureus); assay: In vivo efficacy against Staphylococcus aureus NCTC-10649M after oral administration; format: functional, organism-based
[12] = target: T2, DNA gyrase (Staphylococcus aureus); assay: In vivo efficacy against Staphylococcus aureus NCTC-10649M after subcutaneous administration; format: functional, organism-based
Streptococcus pyogenes = assay: In vitro antibacterial activity against gram-positive organism Streptococcus pyogenes EES61; format: functional; conditions: Streptococcus pyogenes; read-out: MIC
[13] = target: T1, DNA gyrase (Escherichia coli); assay: In vitro antibacterial activity against gram-positive organism Enterococcus faecium ATCC 8043; format: functional
[14] = target: T1, DNA gyrase (Escherichia coli); conditions: Escherichia coli K-12
Description: Concentration which causes 50% of the gyrase (Escherichia coli H560)-mediated maximal DNA cleavage.

[15] = target: T1, DNA gyrase (Escherichia coli); assay: In vivo efficacy against Escherichia coli JUHL after oral administration; format: functional, organism-based; conditions: Escherichia coli K-12
Pseudomonas aeruginosa = assay: In vivo efficacy against Pseudomonas aeruginosa 5007 following p.o. administration.
[16] = target: T1, DNA gyrase (Escherichia coli); assay: In vivo efficacy against Escherichia coli JUHL by subcutaneous administration; format: functional, organism-based; conditions: Escherichia coli K-12
[17] = In vivo efficacy against Pseudomonas aeruginosa 5007 after subcutaneous administration; format: functional; conditions: Pseudomonas aeruginosa, sc; read-out: ED50
Streptococcus pneumoniae = assay: In vivo efficacy against Strep. administration; format: functional
Enterococcus faecalis = assay: Inhibitory activity against enterococcus faecalis Van B; format: functional
Enterococcus faecium = assay: Inhibitory activity against enterococcus faecium Van A; format: functional

| Structure (SMILES) | MIC [1] | MIC [2] | MIC [3] | MIC [4] | MIC [5] | MIC [6] | MIC [7] | MIC [8] | MIC [9] | MIC [10] | ED50 [11] | ED50 [12] | MIC (Streptococcus pyogenes) | MIC [13] | ED50 [15] | ED50 [16] | MIC (Enterococcus faecalis) | MIC (Enterococcus faecium) | CC50 [14] | other results |
| --- | --- | --- | --- | --- | --- | --- | --- | --- | --- | --- | --- | --- | --- | --- | --- | --- | --- | --- | --- | --- |
| NC1CCN(c2c(F)cn3c(=O)c(C(=O)O)cc(C4CC4)c3c2F)C1 (stereo not drawn) | 0.02 mg/L (≈ 0.0573 µM) | 0.01 mg/L (≈ 0.0286 µM) | 0.01 mg/L (≈ 0.0286 µM) | 3.1 mg/L (≈ 8.87 µM) | 0.39 mg/L (≈ 1.12 µM) | 6.2 mg/L (≈ 17.7 µM) | 6.2 mg/L (≈ 17.7 µM) | 0.1 mg/L (≈ 0.286 µM) | 0.1 mg/L (≈ 0.286 µM) | 0.78 mg/L (≈ 2.23 µM) | 14.6 mg/kg | 2.9 mg/kg | 0.78 mg/L (≈ 2.23 µM) | 0.78 mg/L (≈ 2.23 µM) | – | – | – | – | 2.2 mg/L (≈ 6.3 µM) | – |
| Cc1c(N2CC[C@@]3(C[C@H]3N)C2)c(F)cn2c(=O)c(C(=O)O)cc(C3CC3)c12 | 0.05 mg/L (≈ 0.135 µM) | 0.01 mg/L (≈ 0.0269 µM) | 0.01 mg/L (≈ 0.0269 µM) | 0.78 mg/L (≈ 2.1 µM) | 0.39 mg/L (≈ 1.05 µM) | 6.2 mg/L (≈ 16.7 µM) | 0.39 mg/L (≈ 1.05 µM) | 0.005 mg/L (≈ 0.0135 µM) | 0.01 mg/L (≈ 0.0269 µM) | – | 6.3 mg/kg | 1.5 mg/kg | 0.02 mg/L (≈ 0.0538 µM) | 0.05 mg/L (≈ 0.135 µM) | 12.8 mg/kg | 1.9 mg/kg | – | – | – | – |
| Cl.O=C(O)c1cn(C2CC2)c2cc(N3CCNCC3)c(F)cc2c1=O [CIPROFLOXACIN HYDROCHLORIDE] | – | – | – | – | – | – | > 100 mg/L | 0.2 mg/L | 0.39 mg/L | – | – | – | – | – | – | – | 1 mg/L | 4 mg/L | – | – |
| Cc1c(N2C[C@H]3CCC[C@@H](N)[C@H]3C2)c(F)cn2c(=O)c(C(=O)O)cc(C3CC3)c12 | 0.1 mg/L (≈ 0.25 µM) | 0.01 mg/L (≈ 0.025 µM) | 0.02 mg/L (≈ 0.0501 µM) | 0.39 mg/L (≈ 0.976 µM) | 0.39 mg/L (≈ 0.976 µM) | 6.2 mg/L (≈ 15.5 µM) | 0.1 mg/L (≈ 0.25 µM) | 0.005 mg/L (≈ 0.0125 µM) | 0.005 mg/L (≈ 0.0125 µM) | 0.002 mg/L (≈ 0.00501 µM) | 1.4 mg/kg | 0.3 mg/kg | 0.005 mg/L (≈ 0.0125 µM) | 0.02 mg/L (≈ 0.0501 µM) | – | – | – | – | – | – |
| Cc1c(N2CCC(n3cccc3)C2)c(F)cn2c(=O)c(C(=O)O)cc(C3CC3)c12 (stereo not drawn) | 0.39 mg/L (≈ 0.986 µM) | 0.1 mg/L (≈ 0.253 µM) | 0.05 mg/L (≈ 0.126 µM) | 1.56 mg/L (≈ 3.95 µM) | 1.56 mg/L (≈ 3.95 µM) | 25 mg/L (≈ 63.2 µM) | 0.39 mg/L (≈ 0.986 µM) | 0.02 mg/L (≈ 0.0506 µM) | 0.01 mg/L (≈ 0.0253 µM) | 0.2 mg/L (≈ 0.506 µM) | – | – | 0.1 mg/L (≈ 0.253 µM) | 0.1 mg/L (≈ 0.253 µM) | – | – | 0.03 mg/L (≈ 0.0759 µM) | 0.5 mg/L (≈ 1.26 µM) | 0.04 mg/L (≈ 0.101 µM) | – |

Now from value to compound, other results behind:

| MIC [1] | MIC [2] | MIC [3] | MIC [4] | MIC [5] | MIC [6] | MIC [7] | MIC [8] | MIC [9] | MIC [10] | ED50 [11] | ED50 [12] | MIC (Streptococcus pyogenes) | MIC [13] | ED50 [15] | ED50 [16] | MIC (Enterococcus faecalis) | MIC (Enterococcus faecium) | Structure (SMILES) | CC50 [14] | other results |
| --- | --- | --- | --- | --- | --- | --- | --- | --- | --- | --- | --- | --- | --- | --- | --- | --- | --- | --- | --- | --- |
| 0.02 mg/L (≈ 0.0519 µM) | 0.005 mg/L (≈ 0.013 µM) | 0.01 mg/L (≈ 0.0259 µM) | 0.39 mg/L (≈ 1.01 µM) | – | – | 0.39 mg/L (≈ 1.01 µM) | 0.01 mg/L (≈ 0.0259 µM) | 0.01 mg/L (≈ 0.0259 µM) | 0.05 mg/L (≈ 0.13 µM) | 2.5 mg/kg | 0.5 mg/kg | – | 0.1 mg/L (≈ 0.259 µM) | 1 mg/kg | – | – | – | Cc1c(N2C[C@@H]3CCCN[C@@H]3C2)c(F)cn2c(=O)c(C(=O)O)cc(C3CC3)c12 (stereo in doubt; (S,S)45n) | – | ED50 (Pseudomonas aeruginosa): 21.4 mg/kg |
| – | – | – | – | – | – | – | – | – | – | 14.4 mg/kg | 2.7 mg/kg | – | – | 16.6 mg/kg | < 2.5 mg/kg | – | – | CC(NC1CCN(c2nc3c(-c4ccc(F)cc4F)cc(C(=O)O)c(=O)n3cc2F)C1)C(=O)O (stereo not drawn) | – | ED50 [17]: 34.4 mg/kg; ED50 (Streptococcus pneumoniae): 79.8 mg/kg; ED50 (Streptococcus pneumoniae; Streptococcus pneumoniae, read-out: ED50): 164 mg/kg; ED50 (Pseudomonas aeruginosa): 68.8 mg/kg |
| 0.05 mg/L (≈ 0.135 µM) | 0.02 mg/L (≈ 0.0538 µM) | 0.01 mg/L (≈ 0.0269 µM) | 0.78 mg/L (≈ 2.1 µM) | – | – | 0.39 mg/L (≈ 1.05 µM) | 0.02 mg/L (≈ 0.0538 µM) | 0.02 mg/L (≈ 0.0538 µM) | 0.05 mg/L (≈ 0.135 µM) | 5 mg/kg | 0.7 mg/kg | – | 0.05 mg/L (≈ 0.135 µM) | 2.5 mg/kg | 0.4 mg/kg | – | – | Cc1c(N2C[C@@H]3CCN[C@@H]3C2)c(F)cn2c(=O)c(C(=O)O)cc(C3CC3)c12 (stereo in doubt; 45o) | 0.1 mg/L (≈ 0.269 µM) | – |
| 0.01 mg/L (≈ 0.0278 µM) | 0.005 mg/L (≈ 0.0139 µM) | 0.005 mg/L (≈ 0.0139 µM) | 0.39 mg/L (≈ 1.09 µM) | 0.1 mg/L (≈ 0.278 µM) | 1.56 mg/L (≈ 4.34 µM) | 0.39 mg/L (≈ 1.09 µM) | 0.002 mg/L (≈ 0.00556 µM) | 0.002 mg/L (≈ 0.00556 µM) | 0.002 mg/L (≈ 0.00556 µM) | – | – | 0.002 mg/L (≈ 0.00556 µM) | 0.01 mg/L (≈ 0.0278 µM) | – | – | 0.015 mg/L (≈ 0.0417 µM) | 0.03 mg/L (≈ 0.0835 µM) | Cc1c(N2CCC(CN)C2)c(F)cn2c(=O)c(C(=O)O)cc(C3CC3)c12 (stereo not drawn) | 0.05 mg/L (≈ 0.139 µM) | – |
| – | – | – | – | – | – | – | – | – | – | 25.3 mg/kg | 11.4 mg/kg | – | – | 26.7 mg/kg | 3.3 mg/kg | – | – | CC(NC(=O)C(C)N[C@H]1C[C@H](C)N(c2nc3c(-c4ccc(F)cc4F)cc(C(=O)O)c(=O)n3cc2F)C1)C(=O)O (stereo partly drawn) | – | – |

Reference: ChEMBL document CHEMBL1129258, “Synthesis and structure-activity relationships of 2-pyridones: a novel series of potent DNA gyrase inhibitors as antibacterial agents” (J Med Chem, 1996)
